Assay results from ChEMBL document CHEMBL5120909, “Reshaping an Acyclic Nucleoside Phosphonate into a Selective Anti-hepatitis B Virus Compound” (J Med Chem, 2022).

Tests used:
Hepatitis B virus = experiment: Antiviral activity against wild type HBV infected in human HepG2 2.2.15 cells assessed as reduction in viral replication pre incubated for 3 days followed by replacement with fresh compounds for another 3 days prior to pronase treatment by RT-qPCR analysis; type: functional, organism-based, HepG2.2.15; settings: for EC50: HepG2.2.15; for EC90: HepG2.2.15, 144 h, time 6 day
HepG2 2.2.15 [1] = experiment: Cytotoxicity against human HepG2.2.15 cells assessed as reduction in cell viability; type: functional
[2] = test system: Human immunodeficiency virus 1; experiment: Anti-HIV activity against wild type HIV-1 IIIB infected in human MT4 cells assessed as inhibition of HIV-induced cytopathic effect measured after 5 days by MTT assay; type: functional, organism-based; settings: Human immunodeficiency virus 1, IIIB, MT4, 120 h
Human alphaherpesvirus 3 [3] = experiment: Antiviral activity against VZV Ellen infected in HFF cells assessed as reduction in viral replication measured after 14 days; type: functional, organism-based; settings: Human alphaherpesvirus 3, Ellen, 336 h; for EC90: time 14 day
[4] = Selectivity index, ratio of CC50 for cytotoxicity against human HFF cells infected with VZV Ellen virus assessed as reduction in cell viability by cell titer-glo assay to EC50 for antiviral activity against VZV Ellen infected in HFF cells assessed as inhibition of virus-induced cytopathic effect measured after 14 days; type: toxicity, cell-based; settings: read-out: Ratio CC50/EC50
[5] = Cytotoxicity against human HFF cells infected with VZV Ellen virus assessed as reduction in cell viability by cell titer-glo assay; type: toxicity, cell-based
HepG2 2.2.15 [6] = experiment: Cytotoxicity against human HepG2.2.15 cells assessed as reduction in cell viability by neutral red uptake assay; type: functional
[7] = Selectivity index, ratio of CC50 for cytotoxicity against human HFF cells infected with HCMV AD-169 virus assessed as reduction in cell viability by cell titer-glo assay to EC50 for antiviral activity against HCMV AD-169 infected in HFF cells assessed as inhibition of virus-induced cytopathic effect measured after 14 days; type: toxicity, cell-based; settings: read-out: Ratio CC50/EC50
[8] = Cytotoxicity against human MT4 cells assessed as reduction in cell viability by MTT assay; type: toxicity, cell-based
[9] = Cytotoxicity against human HFF cells infected with HCMV AD-169 virus assessed as reduction in cell viability by cell titer-glo assay; type: toxicity, cell-based
[10] = Selectivity index, ratio of CC50 for cytotoxicity against human MT4 cells assessed as reduction in cell viability by MTT assay to EC50 for anti-HIV activity against wild type HIV-1 IIIB infected in human MT4 cells assessed as inhibition of HIV-induced cytopathic effect measured after 5 days by MTT assay; type: toxicity, cell-based; settings: read-out: Ratio CC50/EC50
[11] = test system: Human immunodeficiency virus 2; experiment: Anti-HIV activity against wild type HIV-2 ROD infected in human MT4 cells assessed as inhibition of HIV-induced cytopathic effect measured after 5 days by MTT assay; type: functional, organism-based; settings: Human immunodeficiency virus 2, ROD, MT4, 120 h
Human betaherpesvirus 5 [12] = experiment: Antiviral activity against HCMV AD-169 infected in HFF cells assessed as reduction in viral replication measured after 14 days; type: functional, organism-based; settings: Human betaherpesvirus 5, AD-169, HFF, 336 h; for EC90: time 14 day
[13] = Selectivity index, ratio of CC50 for cytotoxicity against human MT4 cells assessed as reduction in cell viability by MTT assay to EC50 for anti-HIV activity against wild type HIV-2 ROD infected in human MT4 cells assessed as inhibition of HIV-induced cytopathic effect measured after 5 days by MTT assay; type: toxicity, cell-based; settings: read-out: Ratio CC50/EC50
Human alphaherpesvirus 3 [14] = experiment: Antiviral activity against VZV TK+ infected in HEL cells assessed as reduction in virus plaque formation; type: functional, organism-based; settings: Human alphaherpesvirus 3, TK+
[15] = Cytotoxicity against human HEL cells assessed as change in cell morphology measured after 3 days […]; type: toxicity, cell-based; settings: time 3 day
Human betaherpesvirus 5 [16] = experiment: Antiviral activity against HCMV AD-169 infected in HEL cells assessed as reduction in virus plaque formation; type: functional, organism-based; settings: Human betaherpesvirus 5, AD-169, HEL
HepG2 2.2.15 [17] = experiment: Cytotoxicity against human HepG2.2.15 cells assessed as reduction in cell viability incubated for 1 to 4 hrs by MTS uptake assay; type: functional; settings: time 1-4 hrs
Human betaherpesvirus 5 [18] = experiment: Antiviral activity against HCMV Davis infected in HEL cells assessed as reduction in virus plaque formation; type: functional, organism-based; settings: Human betaherpesvirus 5, Davis
[19] = Cytotoxicity against human HEL cells assessed as reduction in cell growth measured after 3 days by coulter counting method; type: toxicity, cell-based; settings: time 3 day
Human alphaherpesvirus 3 [20] = experiment: Antiviral activity against VZV TK- infected in HEL cells assessed as reduction in virus plaque formation; type: functional, organism-based; settings: Human alphaherpesvirus 3, TK-

| SMILES | EC50 (Hepatitis B virus) | CC50 (HepG2 2.2.15 [1]) | EC50 [2] | EC90 (Hepatitis B virus) | CC50 [8] | selectivity ratio at 120 h [10] | EC50 [11] | selectivity ratio at 120 h [13] | EC50 (Human alphaherpesvirus 3 [14]) | MCC at 72 h [15] | EC50 (Human betaherpesvirus 5 [16]) | CC50 (HepG2 2.2.15 [17]) | EC50 (Human betaherpesvirus 5 [18]) | CC50 at 72 h [19] | EC50 (Human alphaherpesvirus 3 [20]) | other results |
| --- | --- | --- | --- | --- | --- | --- | --- | --- | --- | --- | --- | --- | --- | --- | --- | --- |
| C[C@@](CO)(Cn1cnc2c(=O)[nH]c(N)nc21)OCP(=O)(O)O | 0.0423 µM | > 100 µM | – | – | – | – | – | – | – | – | – | – | – | – | – | – |
| C#CC(CO)(Cn1ccc(N)nc1=O)OCP(=O)(O)O (racemic) | > 100 µM | – | > 412 µM | > 100 µM | > 412 µM | 1 | > 412 µM | 1 | – | – | – | – | – | – | – | EC50 (Human alphaherpesvirus 3 [3]): 15.4 µM; EC90 (Human alphaherpesvirus 3 [3]): > 150 µM; selectivity ratio at 336 h [4]: > 10; CC50 [5]: > 150 µM; CC50 (HepG2 2.2.15 [6]): > 100 µM; selectivity ratio at 336 h [7]: < 4; CC50 [9]: 132 µM; EC50 (Human betaherpesvirus 5 [12]): 30 µM; EC90 (Human betaherpesvirus 5 [12]): > 30 µM |
| Nc1nc2c(ncn2COC(CO)CO)c(=O)[nH]1 [GANCICLOVIR] | – | – | – | – | – | – | – | – | – | – | – | – | – | – | – | CC50 [9]: > 150 µM; EC50 (Human betaherpesvirus 5 [12]): 0.86 µM; EC90 (Human betaherpesvirus 5 [12]): 74.2 µM |
| CC(CO)(Cn1cnc2c(N)ncnc21)OCP(=O)(O)O (racemic) | 0.82 µM | – | > 352 µM | 21.8 µM | > 352 µM | 1 | > 352 µM | 1 | 30.8 µM | > 315 µM | 115 µM | > 100 µM | 315 µM | 205 µM | 36.9 µM | – |
| Nc1nc2c(ncn2COCCO)c(=O)[nH]1 [ACYCLOVIR] | – | – | – | – | – | – | – | – | – | > 444 µM | 2.27 µM | – | 2.08 µM | > 444 µM | – | – |
| C#CC(CO)(Cn1cnc2c(N)ncnc21)OCP(=O)(O)O (racemic) | 25 µM | – | 26.6 µM | 62 µM | > 382 µM | > 14 | 18 µM | > 21 | – | – | – | – | – | – | – | EC50 (Human alphaherpesvirus 3 [3]): > 30 µM; EC90 (Human alphaherpesvirus 3 [3]): > 30 µM; selectivity ratio at 336 h [4]: < 4; CC50 [5]: 131 µM; CC50 (HepG2 2.2.15 [6]): > 100 µM; selectivity ratio at 336 h [7]: < 5; CC50 [9]: 145 µM; EC50 (Human betaherpesvirus 5 [12]): 30 µM; EC90 (Human betaherpesvirus 5 [12]): > 30 µM |
| C#CC(CO)(Cn1ccc(=O)[nH]c1=O)OCP(=O)(O)O (racemic) | 21 µM | – | > 411 µM | 77 µM | > 411 µM | 1 | > 411 µM | 1 | – | – | – | – | – | – | – | EC50 (Human alphaherpesvirus 3 [3]): 20.5 µM; EC90 (Human alphaherpesvirus 3 [3]): > 150 µM; selectivity ratio at 336 h [4]: > 7; CC50 [5]: > 150 µM; CC50 (HepG2 2.2.15 [6]): > 100 µM; selectivity ratio at 336 h [7]: 1; CC50 [9]: > 150 µM; EC50 (Human betaherpesvirus 5 [12]): 150 µM; EC90 (Human betaherpesvirus 5 [12]): > 150 µM |
| C#C[C@@](CO)(Cn1cnc2c(=O)[nH]c(N)nc21)OCP(=O)(O)O | 0.0187 µM | > 100 µM | – | – | – | – | – | – | – | – | – | – | – | – | – | – |
| C[C@](CO)(Cn1cnc2c(=O)[nH]c(N)nc21)OCP(=O)(O)O | 0.335 µM | > 100 µM | – | – | – | – | – | – | – | – | – | – | – | – | – | – |
| CC(CO)(Cn1ccc(=O)[nH]c1=O)OCP(=O)(O)O (racemic) | > 100 µM | – | > 425 µM | > 100 µM | > 425 µM | 1 | > 425 µM | 1 | 270 µM | > 340 µM | 260 µM | > 100 µM | 186 µM | – | 340 µM | – |
| C#C[C@@](CO)(Cn1cnc2c(=O)[nH]c(N)nc21)OCP(=O)(N[C@@H](Cc1ccccc1)C(=O)OCCC)N[C@@H](Cc1ccccc1)C(=O)OCCC | 0.00927 µM | > 100 µM | – | – | – | – | – | – | – | – | – | – | – | – | – | – |
| C#C[C@](CO)(Cn1cnc2c(=O)[nH]c(N)nc21)OCP(=O)(O)O | 0.497 µM | > 100 µM | – | – | – | – | – | – | – | – | – | – | – | – | – | – |
| CC(CO)(Cn1ccc(N)nc1=O)OCP(=O)(O)O (racemic) | > 100 µM | – | > 426 µM | > 100 µM | > 426 µM | 1 | > 426 µM | 1 | 18.8 µM | > 341 µM | 24.9 µM | > 100 µM | 37.3 µM | > 341 µM | 45.6 µM | – |
| CC(CO)(Cn1cnc2c(=O)[nH]c(N)nc21)OCP(=O)(O)O (racemic) | 0.14 µM | – | 32.5 µM | 38.1 µM | 228 µM | 7 | 42.1 µM | 5 | 2.4 µM | 300 µM | 5.37 µM | > 100 µM | 5.37 µM | 21.6 µM | 3.6 µM | – |
| O=c1[nH]c(=O)n([C@H]2C[C@H](O)[C@@H](CO)O2)cc1/C=C/Br [BRIVUDINE] | – | – | – | – | – | – | – | – | 0.07 µM | > 300 µM | 0.29 µM | – | 0.34 µM | > 300 µM | 36.1 µM | – |
| Cc1cn(CC(C)(CO)OCP(=O)(O)O)c(=O)[nH]c1=O (racemic) | > 100 µM | – | > 406 µM | > 100 µM | > 406 µM | 1 | > 406 µM | 1 | > 324 µM | > 324 µM | > 324 µM | > 100 µM | > 324 µM | – | 253 µM | – |
